Results: patent publication US20250332173A1, “COMPOUNDS AND METHODS FOR MODULATING NUCLEIC ACID SPLICING” (REMIX THERAPEUTICS INC., priority 2021, published 2025)
pIC50: −log10 of the molar value. Like-named read-outs stand apart in the source and are kept apart here.

Key:
MYB = experiment: HiBiT protein abundance assay, MYB HiBiT K562 cell line; type: cell-based, human; settings: HiBiT K562 cell line, 24 hours, top dose 10 μM; read-out: Effect on protein abundance, MYB (IC50 category)
Outline: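 K562 knock-in lines with endogenous HiBiT-tagged target, 10,000 cells/well in IMDM + FBS, treated 24 h at 37° C with 10-point 3-fold dilutions (top 10 μM final; DMSO ≤0.25%). Lytic Nano-Glo HiBiT luminescence normalized to untagged K562 baseline and DMSO controls; IC50 = concentration giving 50% abundance via four-parameter fit.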

MYB mRNA = experiment: RT-qPCR splicing assay, MYB canonical junction (CJ) and alternative junction (AJ) mRNA; type: cell-based, human; settings: Homo sapiens; for AC50: increase in MYB alternative junction (AJ) mRNA, read-out: MYB AJ AC50
Outline: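 A673 cells (normalized to PPIA) or K562 cells (normalized to GAPDH or GUSB) were treated 24 h at 37 °C with an 11-point 3-fold dilution series, top 10 uM, DMSO ≤0.25%. Cell lysates went to one-step RT-qPCR measuring canonical- and alternative-junction MYB or HTT transcripts.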

[1] = Table 5 panel, canonical junction qPCR, compound concentration having 50% response in CJ decrease, read-out: MYB IC50 (decrease in CJ mRNA levels)
[2] = decrease in MYB canonical junction (CJ) mRNA, RT-qPCR, read-out: MYB CJ IC50

| pIC50 (MYB) | pIC50 (MYB mRNA; [1]) | pIC50 (MYB mRNA; [2]) | Compound | AC50 (MYB mRNA; RT-qPCR) |
| --- | --- | --- | --- | --- |
| > 7.00 | > 7.00 | > 7.00 | Cc1cn2nc(-c3cc4ccn(C5CCNCC5)c(=O)c4cc3O)cc(C)c2n1 [Compound 448, 6-{2,8-dimethylimidazo[1,2-b]pyridazin-6-yl}-7-hydroxy-2-(piperidin-4-yl)isoquinolin-1-one] | < 100 nM |
| < 5.00 | < 5.00 | < 5.00 | COc1cc2c(=O)n(C3CCNCC3)ccc2cc1-c1cc(C)c2nc(C)cn2n1 [Compound 449, 6-{2,8-dimethylimidazo[1,2-b]pyridazin-6-yl}-7-methoxy-2-(piperidin-4-yl)isoquinolin-1-one] | > 10000 nM |
| 5.00 to 6.00 | 5.00 to 6.00 | 5.00 to 6.00 | Cc1cn2cc(-c3ccc4c(=O)n([C@@H]5CCNC5)cc(C)c4c3)cc(F)c2n1 [Compound 452, (R)-6-(8-fluoro-2-methylimidazo[1,2-a]pyridin-6-yl)-4-methyl-2-(pyrrolidin-3-yl)isoquinolin-1(2H)-one] | 1000 to 10000 nM |
| < 5.00 | < 5.00 | < 5.00 | Cc1cn2c(n1)CCC(c1ccc3c(=O)n(C4CCNCC4)ccc3c1)C2 (centres unmarked) [Compound 453, 6-{2-methyl-5H,6H,7H,8H-imidazo[1,2-a]pyridin-6-yl}-2-(piperidin-4-yl)isoquinolin-1-one] | > 10000 nM |
| < 5.00 | < 5.00 | < 5.00 | Cc1cn2cc(-n3ccc4cc(N5C[C@@H](C)N[C@@H](C)C5)ccc4c3=O)nc(C)c2n1 [Compound 454, 2-{2,8-dimethylimidazo[1,2-a]pyrazin-6-yl}-6-[(3R,5S)-3,5-dimethylpiperazin-1-yl]isoquinolin-1-one] | > 10000 nM |
| 5.00 to 6.00 | < 5.00 | < 5.00 | Cc1cn2cc(-c3ccc4c(=O)n([C@H]5CCNC5)cc(C)c4c3)cc(C#N)c2n1 [Compound 456, (S)-2-methyl-6-(4-methyl-1-oxo-2-(pyrrolidin-3-yl)-1,2-dihydroisoquinolin-6-yl)imidazo[1,2-a]pyridine-8-carbonitrile] | > 10000 nM |
| > 7.00 | > 7.00 | > 7.00 | Cc1cn2cc(-c3cc(F)c4c(=O)n(C5CCNCC5)cc(C)c4c3)cc(F)c2n1 [Compound 461, 8-fluoro-6-{8-fluoro-2-methylimidazo[1,2-a]pyridin-6-yl}-4-methyl-2-(piperidin-4-yl)isoquinolin-1-one] | < 100 nM |
| 6.00 to 7.00 | 5.00 to 6.00 | 5.00 to 6.00 | Cc1cn2nc(-c3cc(O)c4c(=O)n(C5CCNC5)cc(C)c4c3)cc(C)c2n1 (centres unmarked) [Compound 462] | 1000 to 10000 nM |
| < 5.00 | < 5.00 | < 5.00 | Cn1cc2c(n1)CCN(c1ccc3c(=O)n(C4CCNCC4)ccc3c1)C2 [Compound 509, 6-{2-methyl-4H,6H,7H-pyrazolo[4,3-c]pyridin-5-yl}-2-(piperidin-4-yl)isoquinolin-1-one] | > 10000 nM |
| 5.00 to 6.00 | 5.00 to 6.00 | 5.00 to 6.00 | Cc1cn2cc(-c3ccc4c(=O)n(C5CCNC6(CC6)C5)ncc4c3)cc(Cl)c2n1 (centres unmarked) [Compound 510] | 1000 to 10000 nM |
| 6.00 to 7.00 | 6.00 to 7.00 | 6.00 to 7.00 | Cn1cc2nc(-c3ccc4c(=O)n(C5CCNC6(CC6)C5)ncc4c3)ccc2n1 (centres unmarked) [Compound 511] | 100 to 1000 nM |

More lines, now with the values behind:

| Compound | pIC50 (MYB) | pIC50 (MYB mRNA; [1]) | pIC50 (MYB mRNA; [2]) | AC50 (MYB mRNA; RT-qPCR) |
| --- | --- | --- | --- | --- |
| Cc1cn2nc(-c3cc(O)c4c(=O)n(C5CCNC5)ccc4c3)cc(C)c2n1 (centres unmarked) [Compound 432, 6-{2,8-dimethylimidazo[1,2-b]pyridazin-6-yl}-8-hydroxy-2-(pyrrolidin-3-yl)isoquinolin-1-one] | > 7.00 | > 7.00 | 6.00 to 7.00 | < 100 nM |
| Cc1cn2cc(-c3cc(O)c4c(=O)n(C5CCNC5)ccc4c3)cc(C#N)c2n1 (centres unmarked) [Compound 433, 6-(8-hydroxy-1-oxo-2-(pyrrolidin-3-yl)-1,2-dihydroisoquinolin-6-yl)-2-methylimidazo[1,2-a]pyridine-8-carbonitrile] | 5.00 to 6.00 | > 7.00 | 5.00 to 6.00 | 100 to 1000 nM |
| Cc1cn2cc(-c3cc(F)c4c(=O)n(C5CCNC5)ccc4c3)cc(C#N)c2n1 (centres unmarked) [Compound 434, 6-[8-fluoro-1-oxo-2-(pyrrolidin-3-yl)isoquinolin-6-yl]-2-methylimidazo[1,2-a]pyridine-8-carbonitrile] | 5.00 to 6.00 | 6.00 to 7.00 | 6.00 to 7.00 | 100 to 1000 nM |
| Cc1cn2cc(-c3ccc4c(=O)n(C5CCNCC5)cc(C)c4c3)cc(F)c2n1 [Compound 440, 6-{8-fluoro-2-methylimidazo[1,2-a]pyridin-6-yl}-4-methyl-2-(piperidin-4-yl)isoquinolin-1-one] | > 7.00 | > 7.00 | > 7.00 | < 100 nM |
| Cc1cn2cc(-c3ccc4c(=O)n(C5CCNC5)cc(C)c4c3)cc(F)c2n1 (centres unmarked) [Compound 441, 6-{8-fluoro-2-methylimidazo[1,2-a]pyridin-6-yl}-4-methyl-2-(pyrrolidin-3-yl)isoquinolin-1-one] | 5.00 to 6.00 | 5.00 to 6.00 | 5.00 to 6.00 | 1000 to 10000 nM |
| Cc1cn2cc(-c3ccc4c(=O)n(C5CCNC5)cc(C)c4c3)cc(C#N)c2n1 (centres unmarked) [Compound 442, 2-methyl-6-[4-methyl-1-oxo-2-(pyrrolidin-3-yl)isoquinolin-6-yl]imidazo[1,2-a]pyridine-8-carbonitrile] | < 5.00 | < 5.00 | < 5.00 | > 10000 nM |
| Cc1cn2nc(-c3ccc4c(=O)n([C@H]5CCNC6(CC6)C5)ccc4c3)cc(C)c2n1 [Compound 445] | > 7.00 | > 7.00 | > 7.00 | < 100 nM |
| Cc1cn2nc(-c3cc(F)c4c(=O)n([C@@H]5CCNC6(CC6)C5)ncc4c3)cc(C)c2n1 [Compound 446] | > 7.00 | > 7.00 | > 7.00 | < 100 nM |
| Cc1cn2nc(-c3cc(F)c4c(=O)n([C@H]5CCNC6(CC6)C5)ncc4c3)cc(C)c2n1 [Compound 447] | > 7.00 | > 7.00 | > 7.00 | < 100 nM |
